What all share (assay): NanoBRET
Assay type in all cases: cell-based
For orientation: In BRET a luciferase serves as donor, and the signal depends on an acceptor being close.

For one assay, the target named is T1, CDK3/Cyclin E2 (Homo sapiens, UniProt Q00526).
T1 construct: Full-length kinases were obtained as plasmids cloned in frame with a terminal NanoLuc-fusion; CCNE2: 'Promega', no number; host or cells: HEK293T
The note with it: read-out: NanoBRET EC50 ± SEM CDK3/Cyclin E2. Here is the method: (§1) The assay was performed as described previously. In brief: Full-length kinases were obtained as plasmids cloned in frame with a terminal NanoLuc-fusion (Promega, Madison, WI, USA), as specified in table (Table S6). Plasmids were transfected into HEK293T cells using FuGENE HD (Promega, E2312) and proteins were allowed to express for 20h. Serially diluted inhibitor and NanoBRET Kinase Tracer (Promega) at a concentration determined previously as the KD,app (Table S5) were pipetted into white 384-well plates (Greiner 781207) using an Echo acoustic dispenser (Labcyte, San Jose, CA, USA). The corresponding protein-transfected cells were added and reseeded at a density of 2.5 × 10^5 cells/mL after trypsinization and resuspending in Opti-MEM without phenol red (Life Technologies, Carlsbad, CA, USA). The system was allowed to equilibrate for 2 h at 37 °C/5% CO2 prior to BRET measurements. To measure BRET, NanoBRET NanoGlo Substrate + Extracellular NanoLuc Inhibitor (Promega, N2540) was added as per the manufacturer’s protocol, and filtered luminescence was measured on a PHERAstar plate reader (BMG Labtech, Ortenberg, Germany) equipped with a luminescence filter pair (450 nm BP filter (donor) and 610 nm LP filter (acceptor)). Competitive displacement data were then graphed using GraphPad Prism 9 software using a normalized 3-parameter curve fit with the following equation: Y = 100/(1 + 10^(X–LogEC50)).

The next assay has as its target T2, CDK15/Cyclin Y (Homo sapiens, UniProt Q96Q40).
T2 construct: Full-length kinases were obtained as plasmids cloned in frame with a terminal NanoLuc-fusion; CS1810C178 (CCNY); host or cells: HEK293T
As to conditions: read-out: NanoBRET EC50 ± SEM CDK15/Cyclin Y. Here is the method: as §1

For a further assay, the target named is T3, CDK6/Cyclin D1 (Homo sapiens, UniProt Q00534).
T3 construct: Full-length kinases were obtained as plasmids cloned in frame with a terminal NanoLuc-fusion; CS1810C118 (CCND1); host or cells: HEK293T
The note with it: read-out: NanoBRET EC50 ± SEM CDK6/Cyclin D1. Here is the method:
as §1

A further assay addresses T4, CDK4/Cyclin D3 (Homo sapiens, UniProt P11802).
T4 construct: Full-length kinases were obtained as plasmids cloned in frame with a terminal NanoLuc-fusion; CS1810C87 (CCND3); host or cells: HEK293T
As to conditions: read-out: NanoBRET EC50 ± SEM CDK4/Cyclin D3. As to the method: as §1

For another assay, the target named is CDK18/Cyclin Y (Homo sapiens, UniProt Q07002). The note with it: read-out: NanoBRET EC50 ± SEM CDK18/Cyclin Y. Here is the method: as §1
The target of the next assay is CDK17/Cyclin Y (Homo sapiens, UniProt Q00537). The note with it: read-out: NanoBRET EC50 ± SEM CDK17/Cyclin Y. As to the method: as §1
In the next assay the target is CDK11B/Cyclin L2 (Homo sapiens, UniProt P21127). As to conditions: read-out: NanoBRET EC50 ± SEM CDK11B/Cyclin L2. Here is the method:
as §1

The next assay deals with T5, CDK6/Cyclin D3 (Homo sapiens, UniProt Q00534).
T5 construct: Full-length kinases were obtained as plasmids cloned in frame with a terminal NanoLuc-fusion; CS1810C87 (CCND3); host or cells: HEK293T
The note with it: read-out: NanoBRET EC50 ± SEM CDK6/Cyclin D3. As to the method:
as §1

In a further assay the target is T6, CDK11A/Cyclin L2 (Homo sapiens, UniProt Q9UQ88).
T6 sequence (Q9UQ88 1-783): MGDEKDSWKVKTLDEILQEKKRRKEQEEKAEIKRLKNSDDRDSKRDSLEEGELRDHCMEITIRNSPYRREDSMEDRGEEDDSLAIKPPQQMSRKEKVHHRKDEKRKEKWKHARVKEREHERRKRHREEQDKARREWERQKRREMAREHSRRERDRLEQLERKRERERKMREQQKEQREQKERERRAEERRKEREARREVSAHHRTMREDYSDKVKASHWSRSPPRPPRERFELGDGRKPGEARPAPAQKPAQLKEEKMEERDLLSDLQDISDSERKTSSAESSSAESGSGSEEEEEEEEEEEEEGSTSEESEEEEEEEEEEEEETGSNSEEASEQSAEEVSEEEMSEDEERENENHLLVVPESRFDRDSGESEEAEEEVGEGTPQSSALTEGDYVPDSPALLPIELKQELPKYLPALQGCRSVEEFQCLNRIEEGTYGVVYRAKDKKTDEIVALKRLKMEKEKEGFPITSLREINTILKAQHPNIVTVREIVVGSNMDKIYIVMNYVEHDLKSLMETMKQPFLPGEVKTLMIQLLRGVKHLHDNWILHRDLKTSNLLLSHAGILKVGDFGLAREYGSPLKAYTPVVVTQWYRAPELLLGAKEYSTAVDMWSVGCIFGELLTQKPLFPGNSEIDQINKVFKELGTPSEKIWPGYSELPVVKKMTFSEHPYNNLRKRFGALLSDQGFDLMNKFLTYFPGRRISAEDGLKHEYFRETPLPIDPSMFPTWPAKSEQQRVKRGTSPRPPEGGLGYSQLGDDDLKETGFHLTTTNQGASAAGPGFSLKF
T6 sequence (Q96S94 1-520 partner): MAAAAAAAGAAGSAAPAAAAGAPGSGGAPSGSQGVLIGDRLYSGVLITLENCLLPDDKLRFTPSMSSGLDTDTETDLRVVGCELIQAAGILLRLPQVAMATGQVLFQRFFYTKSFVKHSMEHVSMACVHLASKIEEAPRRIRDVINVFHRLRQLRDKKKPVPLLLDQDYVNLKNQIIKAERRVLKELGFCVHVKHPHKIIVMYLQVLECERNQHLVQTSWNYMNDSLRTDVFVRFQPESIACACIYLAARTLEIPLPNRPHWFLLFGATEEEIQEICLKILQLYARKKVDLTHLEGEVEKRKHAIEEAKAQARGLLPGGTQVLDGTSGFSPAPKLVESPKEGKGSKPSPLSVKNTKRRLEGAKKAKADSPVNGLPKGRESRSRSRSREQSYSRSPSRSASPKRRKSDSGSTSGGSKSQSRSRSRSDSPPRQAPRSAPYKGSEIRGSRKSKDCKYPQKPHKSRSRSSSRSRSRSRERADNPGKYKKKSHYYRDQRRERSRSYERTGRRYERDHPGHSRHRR
The note with it: read-out: NanoBRET EC50 ± SEM CDK11A/Cyclin L2. Here is the method:
as §1

Drawing on article PMC9736855, “Discovery of 3-Amino-1H-pyrazole-Based Kinase Inhibitors to Illuminate the Understudied PCTAIRE Family” (International Journal of Molecular Sciences, 2022), this text covers EC50 for four compounds.

Structures are written as SMILES.

T5 sequence (Q00534 whole entry, the tested form may be a part): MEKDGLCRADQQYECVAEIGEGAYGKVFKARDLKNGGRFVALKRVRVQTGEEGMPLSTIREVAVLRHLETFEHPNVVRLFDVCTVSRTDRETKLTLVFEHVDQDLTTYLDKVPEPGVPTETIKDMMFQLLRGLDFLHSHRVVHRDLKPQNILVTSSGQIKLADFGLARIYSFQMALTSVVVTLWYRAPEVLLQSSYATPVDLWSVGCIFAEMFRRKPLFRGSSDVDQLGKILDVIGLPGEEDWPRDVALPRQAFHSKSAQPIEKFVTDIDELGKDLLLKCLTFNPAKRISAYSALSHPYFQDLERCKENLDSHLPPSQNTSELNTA
T5 sequence (P30281 whole entry partner, the tested form may be a part): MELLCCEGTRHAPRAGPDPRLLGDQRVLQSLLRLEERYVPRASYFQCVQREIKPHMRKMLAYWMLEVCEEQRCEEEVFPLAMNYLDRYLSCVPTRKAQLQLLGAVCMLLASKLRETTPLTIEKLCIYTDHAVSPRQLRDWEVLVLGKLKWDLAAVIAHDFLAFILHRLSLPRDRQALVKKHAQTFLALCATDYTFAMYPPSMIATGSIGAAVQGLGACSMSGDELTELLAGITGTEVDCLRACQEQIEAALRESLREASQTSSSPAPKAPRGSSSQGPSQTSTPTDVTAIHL
T3 sequence (Q00534 whole entry, the tested form may be a part): as the sequence (Q00534 whole entry, the tested form may be a part) above
T3 sequence (P24385 whole entry partner, the tested form may be a part): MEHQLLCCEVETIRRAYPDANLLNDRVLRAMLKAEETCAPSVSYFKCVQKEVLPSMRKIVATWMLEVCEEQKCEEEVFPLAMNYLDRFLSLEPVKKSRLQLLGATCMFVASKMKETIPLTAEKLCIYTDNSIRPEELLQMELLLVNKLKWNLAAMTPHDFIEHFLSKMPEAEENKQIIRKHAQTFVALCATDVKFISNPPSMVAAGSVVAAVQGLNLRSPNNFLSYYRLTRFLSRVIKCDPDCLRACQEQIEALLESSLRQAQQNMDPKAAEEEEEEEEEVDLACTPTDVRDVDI
T2 sequence (Q96Q40 whole entry, the tested form may be a part): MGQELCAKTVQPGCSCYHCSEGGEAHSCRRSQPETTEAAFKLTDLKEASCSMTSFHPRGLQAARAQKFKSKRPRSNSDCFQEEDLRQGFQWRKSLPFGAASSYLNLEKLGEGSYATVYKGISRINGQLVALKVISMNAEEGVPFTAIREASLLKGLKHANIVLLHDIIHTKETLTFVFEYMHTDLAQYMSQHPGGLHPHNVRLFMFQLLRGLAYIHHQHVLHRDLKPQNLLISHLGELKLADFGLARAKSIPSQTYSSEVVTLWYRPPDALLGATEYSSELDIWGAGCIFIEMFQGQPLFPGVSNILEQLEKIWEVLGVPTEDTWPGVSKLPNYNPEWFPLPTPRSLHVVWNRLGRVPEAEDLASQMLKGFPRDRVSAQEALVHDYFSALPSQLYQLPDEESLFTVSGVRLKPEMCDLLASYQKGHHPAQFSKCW
T2 sequence (Q8ND76 2-341 partner limits assumed): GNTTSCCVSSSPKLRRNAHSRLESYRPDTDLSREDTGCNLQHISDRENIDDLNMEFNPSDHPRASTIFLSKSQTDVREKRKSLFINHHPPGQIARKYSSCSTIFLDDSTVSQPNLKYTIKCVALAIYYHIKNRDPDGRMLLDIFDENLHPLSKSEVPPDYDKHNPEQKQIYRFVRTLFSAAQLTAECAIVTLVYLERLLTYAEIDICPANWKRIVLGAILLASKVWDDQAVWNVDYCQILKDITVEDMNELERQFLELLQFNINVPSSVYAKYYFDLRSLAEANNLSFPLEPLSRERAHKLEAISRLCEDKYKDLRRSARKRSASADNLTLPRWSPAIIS
T4 sequence (P11802 whole entry, the tested form may be a part): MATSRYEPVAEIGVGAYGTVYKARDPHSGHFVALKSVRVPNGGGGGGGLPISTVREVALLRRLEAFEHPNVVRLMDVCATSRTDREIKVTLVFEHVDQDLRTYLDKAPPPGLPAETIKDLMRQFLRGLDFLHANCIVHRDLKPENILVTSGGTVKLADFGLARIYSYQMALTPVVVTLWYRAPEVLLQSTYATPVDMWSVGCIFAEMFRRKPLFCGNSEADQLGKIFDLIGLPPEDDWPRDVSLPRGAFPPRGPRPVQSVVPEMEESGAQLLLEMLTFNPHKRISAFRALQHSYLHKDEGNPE
T4 sequence (P30281 whole entry partner, the tested form may be a part): as the sequence (P30281 whole entry partner, the tested form may be a part) above
Sequence of CDK17/Cyclin Y (Q00537 whole entry): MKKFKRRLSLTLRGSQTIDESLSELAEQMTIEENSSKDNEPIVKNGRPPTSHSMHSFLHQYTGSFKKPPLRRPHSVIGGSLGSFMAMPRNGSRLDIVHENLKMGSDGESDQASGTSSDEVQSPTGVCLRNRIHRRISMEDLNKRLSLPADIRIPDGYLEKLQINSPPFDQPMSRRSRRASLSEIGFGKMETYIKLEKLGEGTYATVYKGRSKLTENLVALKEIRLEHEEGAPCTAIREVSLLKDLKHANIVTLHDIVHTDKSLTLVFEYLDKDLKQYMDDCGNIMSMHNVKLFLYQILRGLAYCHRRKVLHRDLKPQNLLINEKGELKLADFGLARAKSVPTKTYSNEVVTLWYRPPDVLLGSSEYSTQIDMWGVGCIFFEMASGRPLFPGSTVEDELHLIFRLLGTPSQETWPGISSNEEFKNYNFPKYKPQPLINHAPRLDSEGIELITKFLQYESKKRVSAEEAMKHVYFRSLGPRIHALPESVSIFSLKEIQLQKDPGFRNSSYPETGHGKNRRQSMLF
Sequence of CDK17/Cyclin Y (Q8ND76 2-341 partner limits assumed): as the sequence (Q8ND76 2-341 partner limits assumed) above
Sequence of CDK11B/Cyclin L2 (P21127 whole entry, one chain of several): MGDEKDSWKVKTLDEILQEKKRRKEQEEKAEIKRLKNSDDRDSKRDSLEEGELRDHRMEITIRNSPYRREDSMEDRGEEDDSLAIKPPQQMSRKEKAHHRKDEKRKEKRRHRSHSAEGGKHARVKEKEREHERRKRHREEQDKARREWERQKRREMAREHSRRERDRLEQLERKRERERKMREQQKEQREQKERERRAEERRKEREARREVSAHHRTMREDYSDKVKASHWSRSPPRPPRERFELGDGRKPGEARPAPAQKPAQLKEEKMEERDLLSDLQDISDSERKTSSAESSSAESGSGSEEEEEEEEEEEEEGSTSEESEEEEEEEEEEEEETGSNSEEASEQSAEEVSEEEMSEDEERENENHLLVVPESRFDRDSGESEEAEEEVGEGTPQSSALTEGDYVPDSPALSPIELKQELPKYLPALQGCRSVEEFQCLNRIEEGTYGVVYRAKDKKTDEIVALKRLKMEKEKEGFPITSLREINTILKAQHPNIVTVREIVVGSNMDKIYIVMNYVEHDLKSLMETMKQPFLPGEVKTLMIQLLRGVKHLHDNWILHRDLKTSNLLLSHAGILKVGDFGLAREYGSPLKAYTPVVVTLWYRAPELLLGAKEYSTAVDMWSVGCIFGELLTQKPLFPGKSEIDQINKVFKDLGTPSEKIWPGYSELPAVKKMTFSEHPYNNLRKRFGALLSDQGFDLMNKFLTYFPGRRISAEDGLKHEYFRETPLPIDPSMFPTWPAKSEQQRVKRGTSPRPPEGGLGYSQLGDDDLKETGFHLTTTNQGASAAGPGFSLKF
T1 sequence (Q00526 whole entry, the tested form may be a part): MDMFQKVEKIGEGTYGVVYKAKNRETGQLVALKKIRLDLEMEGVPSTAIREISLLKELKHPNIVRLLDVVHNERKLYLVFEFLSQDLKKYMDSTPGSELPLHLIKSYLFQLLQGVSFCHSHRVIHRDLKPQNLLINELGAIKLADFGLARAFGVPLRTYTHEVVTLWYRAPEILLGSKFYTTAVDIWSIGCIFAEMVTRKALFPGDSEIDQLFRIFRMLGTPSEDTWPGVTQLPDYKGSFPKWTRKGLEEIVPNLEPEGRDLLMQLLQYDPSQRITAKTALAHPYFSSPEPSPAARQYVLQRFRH
T1 sequence (O96020 whole entry partner, the tested form may be a part): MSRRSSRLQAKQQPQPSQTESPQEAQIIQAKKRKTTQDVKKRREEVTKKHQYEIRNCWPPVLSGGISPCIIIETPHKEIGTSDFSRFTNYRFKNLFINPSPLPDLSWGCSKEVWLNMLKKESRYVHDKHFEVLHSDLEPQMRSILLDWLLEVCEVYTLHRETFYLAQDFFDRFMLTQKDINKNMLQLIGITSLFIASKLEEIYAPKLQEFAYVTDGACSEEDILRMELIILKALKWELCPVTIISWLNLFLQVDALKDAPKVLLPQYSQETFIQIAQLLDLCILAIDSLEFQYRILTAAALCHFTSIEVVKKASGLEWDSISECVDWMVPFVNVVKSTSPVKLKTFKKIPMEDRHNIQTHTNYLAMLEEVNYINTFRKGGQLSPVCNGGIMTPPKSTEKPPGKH
Sequence of CDK18/Cyclin Y (Q07002 whole entry): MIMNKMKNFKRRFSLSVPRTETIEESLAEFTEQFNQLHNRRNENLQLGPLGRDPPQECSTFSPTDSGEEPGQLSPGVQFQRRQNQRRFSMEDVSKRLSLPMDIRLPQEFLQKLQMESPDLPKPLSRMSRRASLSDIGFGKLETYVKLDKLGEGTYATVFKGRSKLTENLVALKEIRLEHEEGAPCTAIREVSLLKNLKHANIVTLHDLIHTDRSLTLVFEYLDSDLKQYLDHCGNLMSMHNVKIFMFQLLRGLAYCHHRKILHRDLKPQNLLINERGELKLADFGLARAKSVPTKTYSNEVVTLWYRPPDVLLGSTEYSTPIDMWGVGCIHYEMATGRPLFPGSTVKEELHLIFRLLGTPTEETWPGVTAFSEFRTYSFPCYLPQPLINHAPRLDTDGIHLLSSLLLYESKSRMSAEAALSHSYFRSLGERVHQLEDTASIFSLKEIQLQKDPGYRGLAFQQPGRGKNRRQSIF
Sequence of CDK18/Cyclin Y (Q8ND76 2-341 partner limits assumed): as the sequence (Q8ND76 2-341 partner limits assumed) above

For `CC(C)(C)OC(=O)Nc1ccc(CNc2nccc(Nc3cc(C(=O)OC(C)(C)C)[nH]n3)n2)cc1` [43d, tert-butyl 3-((2-((4-((tert-butoxycarbonyl)amino)benzyl)amino)pyrimidin-4-yl)amino)-1H-pyrazole-5-carboxylate], the EC50 was 16.1 ± 7.62 µM at CDK3/Cyclin E2; 0.302 µM on CDK15/Cyclin Y; 1.74 ± 0.206 µM at CDK6/Cyclin D1; 0.908 ± 0.113 µM on CDK4/Cyclin D3; 0.121 µM at CDK18/Cyclin Y; 0.0212 µM at CDK17/Cyclin Y. For the same compound, the EC50 at CDK11B/Cyclin L2 worked out at 3.58 ± 1.73 µM; at CDK6/Cyclin D3, 2.91 ± 1.57 µM; on CDK11A/Cyclin L2, 3.46 ± 1.84 µM.

With `CC(C)OC(=O)c1cc(Nc2ccnc(NCc3ccc(NC(=O)OC(C)(C)C)cc3)n2)n[nH]1` [42d, isopropyl 3-((2-((4-((tert-butoxycarbonyl)amino)benzyl)amino)pyrimidin-4-yl)amino)-1H-pyrazole-5-carboxylate], the EC50 at CDK3/Cyclin E2 was 26.9 ± 13.4 µM; at CDK15/Cyclin Y it was 0.167 ± 0.0149 µM; on CDK6/Cyclin D1 it was 0.959 ± 0.391 µM; at CDK4/Cyclin D3, 0.508 ± 0.0866 µM; at CDK18/Cyclin Y, 0.128 ± 0.0104 µM; on CDK17/Cyclin Y it was 0.0337 ± 0.0025 µM. Besides, the EC50 worked out at 2.99 ± 1.33 µM on CDK11B/Cyclin L2, 2.08 ± 0.935 µM at CDK6/Cyclin D3 and 2.09 ± 0.599 µM at CDK11A/Cyclin L2.

Regarding `N#CCc1ccc(Nc2nccc(Nc3cc(C4CC4)[nH]n3)n2)cc1` [compound 1, reference compound], the EC50 was 0.0384 ± 0.0304 µM at CDK3/Cyclin E2; 0.0934 ± 0.0417 µM on CDK15/Cyclin Y; 0.0105 ± 0.0038 µM on CDK6/Cyclin D1; 0.0321 ± 0.0031 µM at CDK4/Cyclin D3; 0.025 ± 0.0089 µM on CDK18/Cyclin Y; 0.0099 ± 0.0012 µM at CDK17/Cyclin Y. Further, the EC50 stood at 0.669 ± 0.406 µM at CDK11B/Cyclin L2, 0.0453 ± 0.0356 µM on CDK6/Cyclin D3 and 0.76 ± 0.46 µM at CDK11A/Cyclin L2.

Turning to `COC(=O)c1cc(Nc2ccnc(NCc3ccc(NC(=O)OC(C)(C)C)cc3)n2)[nH]n1` [21i, methyl 5-((2-((4-((tert-butoxycarbonyl)amino)benzyl)amino)pyrimidin-4-yl)amino)-1H-pyrazole-3-carboxylate], the EC50 was 38.8 ± 4.64 µM at CDK3/Cyclin E2; 2.09 ± 0.496 µM on CDK15/Cyclin Y; 7.45 ± 1.74 µM on CDK6/Cyclin D1; 6.78 ± 1.46 µM at CDK4/Cyclin D3; 1.62 ± 0.287 µM at CDK18/Cyclin Y; 0.673 µM on CDK17/Cyclin Y. In addition, the figures for the EC50 at CDK11B/Cyclin L2, at CDK6/Cyclin D3 and on CDK11A/Cyclin L2 were 16.7 ± 7.89 µM, 6.55 ± 3.48 µM and 20.5 ± 11.8 µM, respectively.
